Results published in publication PMC12420824, “Discovery of a selective alpha-kinase 1 inhibitor for the rare genetic disease ROSAH syndrome” (Nature Communications, 2025).

Legend:
Assay in all cases: HotSpot kinase assay
Details in all cases: read-out: % Enzyme Activity (relative to DMSO control), 10 uM
CAMK2d = CAMK2d (Homo sapiens, UniProt Q13557)
COT1/MAP3K8 = COT1/MAP3K8 (Homo sapiens, UniProt P41279)
Source text: (§1) Additionally, a 10-dose dilution series of staurosporine and other enzyme-appropriate compounds were included as positive control inhibitors.

CAMK2b = CAMK2b (Homo sapiens, UniProt Q13554)
Source text: as §1

PASK = PASK (Homo sapiens, UniProt Q96RG2)
Source text: as §1

DAPK1 = DAPK1 (Homo sapiens, UniProt P53355)
Source text: as §1

MST4 = MST4 (Homo sapiens, UniProt Q9P289)
Source text: as §1

HIPK4 = HIPK4 (Homo sapiens, UniProt Q8NE63)
DMPK2 = DMPK2 (Homo sapiens, UniProt Q6DT37)
Source text: as §1

MYO3A = MYO3A (Homo sapiens, UniProt Q8NEV4)
Source text: as §1

Aurora B = Aurora B (Homo sapiens, UniProt Q96GD4)
Source text: as §1

PKCIOTA = PKCIOTA (Homo sapiens, UniProt P41743)
Source text: as §1

EPHB1 = EPHB1 (Homo sapiens, UniProt P54762)
Source text: as §1

STK25/YSK1 = STK25/YSK1 (Homo sapiens, UniProt O00506)
Source text: as §1

MSSK1/STK23 = MSSK1/STK23 (Homo sapiens, UniProt Q9UPE1)
SGK3/SGKL = SGK3/SGKL (Homo sapiens, UniProt Q96BR1)
Source text: as §1

EPHB4 = EPHB4 (Homo sapiens, UniProt P54760)
Source text: as §1

ULK2 = ULK2 (Homo sapiens, UniProt Q8IYT8)
Source text: as §1

SLK/STK2 = SLK/STK2 (Homo sapiens, UniProt Q9H2G2)
Source text: as §1

c-MET = c-MET (Homo sapiens, UniProt P08581)
Source text: as §1

MNK2 = MNK2 (Homo sapiens, UniProt Q9HBH9)
TGFBR2 = TGFBR2 (Homo sapiens, UniProt P37173)
Source text: as §1

KSR1 = KSR1 (Homo sapiens, UniProt Q8IVT5)
Source text: as §1

AMPK(A1/B1/G3) = AMPK(A1/B1/G3) (Homo sapiens, UniProt Q13131)
Source text: as §1

PKCg = PKCg (Homo sapiens, UniProt P05129)
Source text: as §1

TLK1 = TLK1 (Homo sapiens, UniProt Q9UKI8)
Source text: as §1

HIPK3 = HIPK3 (Homo sapiens, UniProt Q9H422)
CK2a = CK2a (Homo sapiens, UniProt P68400)
Source text: as §1

TSSK2 = TSSK2 (Homo sapiens, UniProt Q96PF2)
Source text: as §1

CDK3/cyclin E2 = CDK3/cyclin E2 (Homo sapiens, UniProt Q00526)
IKKe/IKBKE = IKKe/IKBKE (Homo sapiens, UniProt Q14164)
Source text: as §1

PKG2/PRKG2 = PKG2/PRKG2 (Homo sapiens, UniProt Q13237)
Source text: as §1

GRK3 = GRK3 (Homo sapiens, UniProt P35626)
Source text: as §1

ERK1 = ERK1 (Homo sapiens, UniProt P27361)
Source text: as §1

CK1g2 = CK1g2 (Homo sapiens, UniProt P78368)
LCK = LCK (Homo sapiens, UniProt P06239)
Source text: as §1

PAK1 = PAK1 (Homo sapiens, UniProt Q13153)
Source text: as §1

ALK6/BMPR1B = ALK6/BMPR1B (Homo sapiens, UniProt O00238)
Source text: as §1

SRPK1 = SRPK1 (Homo sapiens, UniProt Q96SB4)
Source text: as §1

PYK2 = PYK2 (Homo sapiens, UniProt Q14289)
Source text: as §1

FGFR3 = FGFR3 (Homo sapiens, UniProt P22607)
Source text: as §1

Sequence of IKKe/IKBKE (Q14164 whole entry): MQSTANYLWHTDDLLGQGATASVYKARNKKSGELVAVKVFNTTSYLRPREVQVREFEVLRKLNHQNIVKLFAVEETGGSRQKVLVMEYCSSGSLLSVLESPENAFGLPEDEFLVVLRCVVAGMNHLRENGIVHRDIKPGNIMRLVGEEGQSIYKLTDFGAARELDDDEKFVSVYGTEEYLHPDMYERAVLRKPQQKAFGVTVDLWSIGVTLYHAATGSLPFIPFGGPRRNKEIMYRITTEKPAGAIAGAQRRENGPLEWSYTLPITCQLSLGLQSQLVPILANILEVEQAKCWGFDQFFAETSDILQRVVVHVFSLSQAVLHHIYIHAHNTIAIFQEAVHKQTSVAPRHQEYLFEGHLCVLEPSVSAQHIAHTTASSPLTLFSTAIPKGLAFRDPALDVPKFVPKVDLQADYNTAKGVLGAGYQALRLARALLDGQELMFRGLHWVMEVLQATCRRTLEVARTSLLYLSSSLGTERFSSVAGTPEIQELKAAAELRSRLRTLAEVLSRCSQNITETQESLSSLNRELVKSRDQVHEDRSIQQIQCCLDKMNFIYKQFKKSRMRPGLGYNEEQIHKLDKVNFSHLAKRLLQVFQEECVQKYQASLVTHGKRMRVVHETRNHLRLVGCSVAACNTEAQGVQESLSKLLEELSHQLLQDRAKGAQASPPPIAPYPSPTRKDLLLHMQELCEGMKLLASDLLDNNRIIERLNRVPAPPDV
Sequence of DAPK1 (P53355 whole entry): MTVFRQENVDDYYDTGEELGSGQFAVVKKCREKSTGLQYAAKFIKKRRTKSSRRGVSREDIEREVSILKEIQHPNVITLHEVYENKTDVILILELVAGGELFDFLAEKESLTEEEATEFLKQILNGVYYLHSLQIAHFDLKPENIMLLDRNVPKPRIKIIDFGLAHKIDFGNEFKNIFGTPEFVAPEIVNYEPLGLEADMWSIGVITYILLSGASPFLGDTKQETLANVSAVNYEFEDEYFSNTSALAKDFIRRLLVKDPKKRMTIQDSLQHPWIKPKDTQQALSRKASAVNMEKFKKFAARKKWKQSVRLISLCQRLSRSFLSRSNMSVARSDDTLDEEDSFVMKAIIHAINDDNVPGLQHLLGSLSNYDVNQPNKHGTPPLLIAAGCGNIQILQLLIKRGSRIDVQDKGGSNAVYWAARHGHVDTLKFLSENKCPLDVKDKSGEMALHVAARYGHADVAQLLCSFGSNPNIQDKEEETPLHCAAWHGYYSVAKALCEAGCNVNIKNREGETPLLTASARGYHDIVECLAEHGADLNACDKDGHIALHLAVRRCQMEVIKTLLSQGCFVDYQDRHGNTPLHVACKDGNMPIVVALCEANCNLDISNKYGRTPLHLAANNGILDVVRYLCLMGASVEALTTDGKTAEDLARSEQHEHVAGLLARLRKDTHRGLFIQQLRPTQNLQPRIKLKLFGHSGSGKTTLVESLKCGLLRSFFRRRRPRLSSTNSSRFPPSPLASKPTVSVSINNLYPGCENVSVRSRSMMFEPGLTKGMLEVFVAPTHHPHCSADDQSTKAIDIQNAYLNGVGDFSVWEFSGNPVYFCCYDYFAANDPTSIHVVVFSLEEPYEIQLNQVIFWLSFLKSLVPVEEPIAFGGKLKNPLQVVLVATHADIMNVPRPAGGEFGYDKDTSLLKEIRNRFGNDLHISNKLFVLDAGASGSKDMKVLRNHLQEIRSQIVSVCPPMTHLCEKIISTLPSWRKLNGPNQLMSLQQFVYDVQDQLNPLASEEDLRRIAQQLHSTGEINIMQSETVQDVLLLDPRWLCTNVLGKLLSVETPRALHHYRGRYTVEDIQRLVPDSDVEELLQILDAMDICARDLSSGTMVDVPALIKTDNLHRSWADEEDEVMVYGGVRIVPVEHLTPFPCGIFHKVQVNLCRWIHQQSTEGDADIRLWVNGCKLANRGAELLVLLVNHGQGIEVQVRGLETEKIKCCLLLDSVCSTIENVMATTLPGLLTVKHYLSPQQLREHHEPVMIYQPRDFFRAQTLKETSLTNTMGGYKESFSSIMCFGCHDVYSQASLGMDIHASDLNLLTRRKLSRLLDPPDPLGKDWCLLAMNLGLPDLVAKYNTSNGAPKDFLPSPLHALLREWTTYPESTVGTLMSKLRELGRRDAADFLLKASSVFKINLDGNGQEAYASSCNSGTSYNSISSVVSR
Sequence of PAK1 (Q13153 whole entry): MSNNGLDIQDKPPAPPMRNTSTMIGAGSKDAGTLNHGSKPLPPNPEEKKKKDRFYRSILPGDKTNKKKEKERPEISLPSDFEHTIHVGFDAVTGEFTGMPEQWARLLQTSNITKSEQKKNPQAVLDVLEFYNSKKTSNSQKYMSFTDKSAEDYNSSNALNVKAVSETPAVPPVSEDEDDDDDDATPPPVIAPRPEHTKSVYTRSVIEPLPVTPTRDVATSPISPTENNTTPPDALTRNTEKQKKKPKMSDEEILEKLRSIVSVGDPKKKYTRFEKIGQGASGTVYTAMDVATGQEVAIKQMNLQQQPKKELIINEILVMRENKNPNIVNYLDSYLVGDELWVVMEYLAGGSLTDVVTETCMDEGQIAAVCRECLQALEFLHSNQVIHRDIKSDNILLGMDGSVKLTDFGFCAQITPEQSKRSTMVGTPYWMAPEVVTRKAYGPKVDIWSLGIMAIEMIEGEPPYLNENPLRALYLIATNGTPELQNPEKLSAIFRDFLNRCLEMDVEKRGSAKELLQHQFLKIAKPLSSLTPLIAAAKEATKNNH
Sequence of KSR1 (Q8IVT5 whole entry): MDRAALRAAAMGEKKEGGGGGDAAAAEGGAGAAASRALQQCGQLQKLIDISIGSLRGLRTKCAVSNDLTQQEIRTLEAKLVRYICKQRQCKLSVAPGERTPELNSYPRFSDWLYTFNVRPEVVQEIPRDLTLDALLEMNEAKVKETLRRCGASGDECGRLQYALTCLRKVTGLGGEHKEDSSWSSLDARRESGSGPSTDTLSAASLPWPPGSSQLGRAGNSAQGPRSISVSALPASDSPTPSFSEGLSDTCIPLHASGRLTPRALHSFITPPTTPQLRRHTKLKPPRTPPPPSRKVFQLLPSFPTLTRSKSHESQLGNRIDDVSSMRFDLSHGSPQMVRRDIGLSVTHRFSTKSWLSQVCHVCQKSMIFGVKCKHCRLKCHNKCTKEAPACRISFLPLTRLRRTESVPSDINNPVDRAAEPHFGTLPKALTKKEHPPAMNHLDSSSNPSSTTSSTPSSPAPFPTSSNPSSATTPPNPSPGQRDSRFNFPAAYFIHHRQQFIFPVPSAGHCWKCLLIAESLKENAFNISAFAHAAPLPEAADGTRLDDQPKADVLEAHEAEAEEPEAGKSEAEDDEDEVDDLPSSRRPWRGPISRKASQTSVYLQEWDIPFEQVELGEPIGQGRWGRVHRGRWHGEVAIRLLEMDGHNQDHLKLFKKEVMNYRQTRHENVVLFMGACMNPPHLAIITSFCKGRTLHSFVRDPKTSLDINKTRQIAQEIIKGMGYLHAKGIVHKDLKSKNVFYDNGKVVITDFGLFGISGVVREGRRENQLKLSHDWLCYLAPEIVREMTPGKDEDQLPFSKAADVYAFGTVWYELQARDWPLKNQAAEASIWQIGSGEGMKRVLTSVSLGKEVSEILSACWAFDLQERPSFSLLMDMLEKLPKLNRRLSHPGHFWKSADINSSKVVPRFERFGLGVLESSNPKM
Sequence of CK2a (P68400 whole entry): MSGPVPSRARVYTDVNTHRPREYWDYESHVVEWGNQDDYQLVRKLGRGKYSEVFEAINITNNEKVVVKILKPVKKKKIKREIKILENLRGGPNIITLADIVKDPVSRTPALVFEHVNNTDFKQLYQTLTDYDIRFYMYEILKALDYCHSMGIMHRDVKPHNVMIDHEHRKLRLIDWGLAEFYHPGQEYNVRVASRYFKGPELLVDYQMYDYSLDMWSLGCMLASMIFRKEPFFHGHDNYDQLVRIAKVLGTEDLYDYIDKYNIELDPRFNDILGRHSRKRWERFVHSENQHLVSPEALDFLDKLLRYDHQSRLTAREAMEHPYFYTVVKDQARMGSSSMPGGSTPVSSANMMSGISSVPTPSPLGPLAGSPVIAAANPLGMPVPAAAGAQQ
Sequence of TSSK2 (Q96PF2 whole entry): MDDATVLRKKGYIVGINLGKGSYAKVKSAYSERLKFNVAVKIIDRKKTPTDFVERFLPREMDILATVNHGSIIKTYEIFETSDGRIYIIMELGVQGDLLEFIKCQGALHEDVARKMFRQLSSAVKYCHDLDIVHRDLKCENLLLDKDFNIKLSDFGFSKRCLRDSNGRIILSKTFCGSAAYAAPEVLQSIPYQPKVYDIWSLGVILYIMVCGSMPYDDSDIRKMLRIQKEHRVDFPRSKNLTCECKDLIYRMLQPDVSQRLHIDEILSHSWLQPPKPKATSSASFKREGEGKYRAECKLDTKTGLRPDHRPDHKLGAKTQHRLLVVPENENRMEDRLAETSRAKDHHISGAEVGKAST
Sequence of STK25/YSK1 (O00506 whole entry): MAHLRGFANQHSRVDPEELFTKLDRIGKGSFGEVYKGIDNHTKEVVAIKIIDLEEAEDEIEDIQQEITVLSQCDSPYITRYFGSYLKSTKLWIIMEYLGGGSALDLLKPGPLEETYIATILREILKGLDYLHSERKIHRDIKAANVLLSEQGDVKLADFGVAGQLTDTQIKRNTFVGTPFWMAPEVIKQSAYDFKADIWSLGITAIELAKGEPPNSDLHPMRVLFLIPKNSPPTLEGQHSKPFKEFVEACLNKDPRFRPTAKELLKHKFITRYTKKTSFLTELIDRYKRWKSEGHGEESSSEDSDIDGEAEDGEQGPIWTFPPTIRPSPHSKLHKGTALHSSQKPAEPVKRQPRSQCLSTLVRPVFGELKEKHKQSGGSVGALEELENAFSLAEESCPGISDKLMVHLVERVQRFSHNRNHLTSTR

## C#C[C@@](C)(c1ccc(Cl)cc1)c1csc(NC(=O)c2c(F)cc(N3CCNCC3)cc2F)n1 (stereo in doubt) [DF-003]
CAMK2d
  remaining activity at 10 µM: 7.88%
COT1/MAP3K8
  remaining activity at 10 µM: 20.7%
CAMK2b
  remaining activity at 10 µM: 30.3%
PASK
  remaining activity at 10 µM: 56.5%
DAPK1
  remaining activity at 10 µM: 62.8%
MST4
  remaining activity at 10 µM: 69.3%
HIPK4
  remaining activity at 10 µM: 73.6%
DMPK2
  remaining activity at 10 µM: 74%
MYO3A
  remaining activity at 10 µM: 75.5%
Aurora B
  remaining activity at 10 µM: 76.5%
PKCIOTA
  remaining activity at 10 µM: 77.5%
EPHB1
  remaining activity at 10 µM: 80.8%
STK25/YSK1
  remaining activity at 10 µM: 82.9%
MSSK1/STK23
  remaining activity at 10 µM: 84.2%
SGK3/SGKL
  remaining activity at 10 µM: 84.3%
EPHB4
  remaining activity at 10 µM: 85.6%
ULK2
  remaining activity at 10 µM: 86%
SLK/STK2
  remaining activity at 10 µM: 89%
c-MET
  remaining activity at 10 µM: 90.7%
MNK2
  remaining activity at 10 µM: 90.7%
TGFBR2
  remaining activity at 10 µM: 91.5%
KSR1
  remaining activity at 10 µM: 91.5%
AMPK(A1/B1/G3)
  remaining activity at 10 µM: 92.7%
PKCg
  remaining activity at 10 µM: 93.5%
TLK1
  remaining activity at 10 µM: 96.5%
HIPK3
  remaining activity at 10 µM: 96.7%
CK2a
  remaining activity at 10 µM: 101%
TSSK2
  remaining activity at 10 µM: 101%
CDK3/cyclin E2
  remaining activity at 10 µM: 103%
IKKe/IKBKE
  remaining activity at 10 µM: 104%
PKG2/PRKG2
  remaining activity at 10 µM: 105%
GRK3
  remaining activity at 10 µM: 111%
ERK1
  remaining activity at 10 µM: 115%
CK1g2
  remaining activity at 10 µM: 121%
LCK
  remaining activity at 10 µM: 121%
PAK1
  remaining activity at 10 µM: 122%
ALK6/BMPR1B
  remaining activity at 10 µM: 123%
SRPK1
  remaining activity at 10 µM: 125%
PYK2
  remaining activity at 10 µM: 129%
FGFR3
  remaining activity at 10 µM: 136%
